# Assay results published in the supplement of paper PMC9663587.
# Columns and labels:
# [1] = compound: CN(C)C/C=C/C(=O)Nc1ccc(C(=O)Nc2cccc(Nc3ncc(Cl)c(-c4c[nH]c5ccccc45)n3)c2)cc1 [THZ1]; test: GR value, 72 h; higher = faster growth (1 = untreated, <0 = killing);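 also: breast cancer and non-malignant breast epithelial lines, nine half-log doses, viable cells counted by Hoechst and LIVE/DEAD dye imaging versus time-zero plates and DMSO controls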
# [2] = compound: CCc1cnn2c(NCc3ccc[n+]([O-])c3)cc(N3CCCC[C@H]3CCO)nc12; test: as above
# [3] = compound: CN(C)C(=O)c1cc2cnc(Nc3ccc(N4CCNCC4)cn3)nc2n1C1CCCC1 [LEE011/Ribociclib]; test: as above
# [4] = compound: CCN1CCN(Cc2ccc(Nc3ncc(F)c(-c4cc(F)c5nc(C)n(C(C)C)c5c4)n3)nc2)CC1; test: as above
# [5] = compound: T1, CN(C)C/C=C/C(=O)Nc1ccc(C(=O)N2CCC[C@@H](Nc3ncc(Cl)c(-c4c[nH]c5ccccc45)n3)C2)cc1 [THZ531]; test: as above
# [6] = compound: C=CC(=O)Nc1ccc(C(=O)Nc2[nH]nc3c2CN(C(=O)N[C@H](CN(C)C)c2ccccc2)C3(C)C)cc1 [YKL-5-124]; test: as above
# [7] = compound: CC(=O)c1c(C)c2cnc(Nc3ccc(N4CCNCC4)cn3)nc2n(C2CCCC2)c1=O; test: as above
# [8] = compound: CC(=O)c1c(C)c2cnc(Nc3ccc(N4CCN(CCOCCOCCOCCNC(=O)COc5cccc6c5C(=O)N(C5CCC(=O)NC5=O)C6=O)CC4)cn3)nc2n(C2CCCC2)c1=O [BSJ-03-123]; test: as above
# [9] = compound: CN1CCN(C(=O)c2ccc3cc(CCNc4ncnc5ccc(C#N)cc45)ccc3c2)CC1 [senexin b]
# [10] = compound: O=C1NC(=O)[C@@H](c2cn3c4c(cccc24)CCC3)[C@@H]1c1c[nH]c2ccccc12 [Tivantinib/ARQ197]
# [11] = compound: Cc1cc(Nc2ncc(Cl)c(Nc3ccccc3S(=O)(=O)C(C)C)n2)c(OC(C)C)cc1C1CCNCC1 [Ceritinib/LDK378]
# [12] = compound: CS(=O)(=O)N1CCN(Cc2cc3nc(-c4cccc5[nH]ncc45)nc(N4CCOCC4)c3s2)CC1 [Pictilisib/GDC0941]
# [13] = compound: CC(=O)O[C@H]1C(=O)[C@@]2(C)[C@H]([C@H](OC(=O)c3ccccc3)[C@]3(O)C[C@H](OC(=O)[C@H](O)[C@@H](NC(=O)c4ccccc4)c4ccccc4)C(C)=C1C3(C)C)[C@]1(OC(C)=O)CO[C@@H]1C[C@@H]2O [Paclitaxel]
# [14] = compound: CN(C)C/C=C/C(=O)Nc1ccc(O[C@@H]2CCC[C@@H](Nc3ncc(Cl)c(-c4c[nH]c5ccccc45)n3)C2)cc1 [BSJ-01-175]
# [15] = compound: T1, THZ531
# [16] = compound: CNCc1ccc(-c2[nH]c3cc(F)cc4c3c2CCNC4=O)cc1 [Rucaparib]
# [17] = compound: C[C@@H]1COCCN1c1cc(C2([S@](C)(=N)=O)CC2)nc(-c2cc[nH]c3nccc2-3)n1 [AZD6738]
# [18] = compound: COc1cc2c(Oc3ccc4[nH]c(C)cc4c3F)ncnc2cc1OCCCN1CCCC1 [Cediranib/AZD2171]
# 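For GR50, 72 h in this document: breast cancer and non-malignant breast epithelial cell lines, Deep Dye Drop or Dye Drop imaging, nine half-log doses, GR normalized to time-zero plates and DMSO-only controls.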
cell line,measurement,setting,value
CAL120,GR value,[1]; 0.0001 µM,1.02 GR
same,GR value,[1]; 0.0003162 µM,0.971 GR
same,GR value,[1]; 0.001 µM,0.979 GR
same,GR value,[1]; 0.003162 µM,0.92 GR
same,GR value,[1]; 0.01 µM,0.938 GR
same,GR value,[1]; 0.03162 µM,0.656 GR
same,GR value,[1]; 0.1 µM,0.324 GR
same,GR value,[1]; 0.3162 µM,0.154 GR
same,GR value,[1]; 1 µM,-0.159 GR
same,GR value,[2]; 0.0001 µM,1.01 GR
same,GR value,[2]; 0.0003162 µM,0.995 GR
same,GR value,[2]; 0.001 µM,1.03 GR
same,GR value,[2]; 0.003162 µM,1.01 GR
same,GR value,[2]; 0.01 µM,0.495 GR
same,GR value,[2]; 0.03162 µM,-0.0996 GR
same,GR value,[2]; 0.1 µM,-0.125 GR
same,GR value,[2]; 0.3162 µM,-0.129 GR
same,GR value,[2]; 1 µM,-0.116 GR
same,GR value,[3]; 0.001 µM,0.879 GR
same,GR value,[3]; 0.003162 µM,0.818 GR
same,GR value,[3]; 0.01 µM,0.765 GR
same,GR value,[3]; 0.03162 µM,0.809 GR
same,GR value,[3]; 0.1 µM,0.703 GR
same,GR value,[3]; 0.3162 µM,0.732 GR
same,GR value,[3]; 1 µM,0.646 GR
same,GR value,[3]; 3.162 µM,0.631 GR
same,GR value,[3]; 10 µM,0.664 GR
same,GR value,[4]; 0.001 µM,0.93 GR
same,GR value,[4]; 0.003162 µM,0.85 GR
same,GR value,[4]; 0.01 µM,0.715 GR
same,GR value,[4]; 0.03162 µM,0.659 GR
same,GR value,[4]; 0.1 µM,0.609 GR
same,GR value,[4]; 0.3162 µM,0.594 GR
same,GR value,[4]; 1 µM,0.377 GR
same,GR value,[4]; 3.162 µM,-0.0553 GR
same,GR value,[4]; 10 µM,-0.138 GR
same,GR value,[5]; 0.0001 µM,1.03 GR
same,GR value,[5]; 0.0003162 µM,1.03 GR
same,GR value,[5]; 0.001 µM,0.934 GR
same,GR value,[5]; 0.003162 µM,1.04 GR
same,GR value,[5]; 0.01 µM,1.06 GR
same,GR value,[5]; 0.03162 µM,0.891 GR
same,GR value,[5]; 0.1 µM,0.589 GR
same,GR value,[5]; 0.3162 µM,0.275 GR
same,GR value,[5]; 1 µM,-0.0063 GR
same,GR value,[6]; 0.001 µM,0.776 GR
same,GR value,[6]; 0.003162 µM,0.599 GR
same,GR value,[6]; 0.01 µM,0.467 GR
same,GR value,[6]; 0.03162 µM,0.385 GR
same,GR value,[6]; 0.1 µM,0.377 GR
same,GR value,[6]; 0.3162 µM,0.313 GR
same,GR value,[6]; 1 µM,0.328 GR
same,GR value,[6]; 3.162 µM,0.324 GR
same,GR value,[6]; 10 µM,0.187 GR
same,GR value,[7]; 0.0003162 µM,1.02 GR
same,GR value,[7]; 0.001 µM,1.01 GR
same,GR value,[7]; 0.003162 µM,0.992 GR
same,GR value,[7]; 0.01 µM,0.953 GR
same,GR value,[7]; 0.03162 µM,0.815 GR
same,GR value,[7]; 0.1 µM,0.756 GR
same,GR value,[7]; 0.3162 µM,0.761 GR
same,GR value,[7]; 1 µM,0.743 GR
same,GR value,[7]; 3.162 µM,0.671 GR
same,GR value,[8]; 0.001 µM,0.923 GR
same,GR value,[8]; 0.003162 µM,0.923 GR
same,GR value,[8]; 0.01 µM,0.969 GR
same,GR value,[8]; 0.03162 µM,0.906 GR
same,GR value,[8]; 0.1 µM,0.861 GR
same,GR value,[8]; 0.3162 µM,0.9 GR
same,GR value,[8]; 1 µM,0.755 GR
same,GR value,[8]; 3.162 µM,0.759 GR
same,GR value,[8]; 10 µM,0.234 GR
same,"GR50, 72 h",[9],> 10 µM
same,"GR50, 72 h",[10],0.251 µM
same,"GR50, 72 h",[11],0.799 µM
same,"GR50, 72 h",[12],2.07 µM
same,"GR50, 72 h",[13],0.00288 µM
same,"GR50, 72 h",[14],0.0411 µM
same,"GR50, 72 h",[15],0.15 µM
same,"GR50, 72 h",[16],> 10 µM
same,"GR50, 72 h",[17],> 10 µM
same,"GR50, 72 h",[18],1.04 µM
